Results published in US20140056835A1, “COSMETIC COMPOSITION FOR SKIN WHITENING COMPRISING SMALL MOLECULE-PEPTIDE CONJUGATE” (AE KYUNG INDUSTRIAL CO., LTD., priority 2012, published 2014).

Assays:
Tyrosinase = target: T1, Tyrosinase (Agaricus bisporus, UniProt C7FF04); test: Test for inhibitory effect on tyrosinase activity (dopachrome absorbance at 475 nm); format: biochemical, mushrooms; conditions: L-tyrosine substrate, 10 min at 37° C.; for inhibition at 50 µM / inhibition at 100 µM: read-out: Tyrosinase activity inhibition rate (%)
T1 construct: purchased Sigma; host or cells: natural source: mushrooms

B16F1 melanoma cells = test: Test for inhibitory effect on melanin production; format: cell-based; conditions: sample 50 uM, incubated for 2 days; for inhibition at 50 µM: Mus musculus, B16-F1, 48 h, read-out: Melanin production inhibition rate (%)
Description: Inhibitory effect on melanin formation was measured using B16F1 melanoma cells. B16F1 melanoma cells were inoculated into a 6-well plate at a density of 3×10^5 (cells/well) with DMEM containing 10% FBS. […] After 2 days, the medium was removed and the cells were washed with PBS (phosphate buffered saline), treated with trypsin, and then retrieved. The retrieved cells were centrifuged and the supernatant was discarded. Intracellular melanin was obtained by treating the cells with 0.2 ml of 1N NaOH+10% DMSO solution. The collected cells were transferred to a 96-well plate and absorbance was measured at 490 nm. The amount of intracellular melanin was estimated using standard curve with synthetic melanin as a standard substance. The amount of protein was quantified via absorbance measurement using a protein assay reagent. For the amount of melanin produced, the amount of melanin for a given protein was estimated.

skin = conditions: in vivo

T1 sequence (C7FF04 1-392 limits assumed): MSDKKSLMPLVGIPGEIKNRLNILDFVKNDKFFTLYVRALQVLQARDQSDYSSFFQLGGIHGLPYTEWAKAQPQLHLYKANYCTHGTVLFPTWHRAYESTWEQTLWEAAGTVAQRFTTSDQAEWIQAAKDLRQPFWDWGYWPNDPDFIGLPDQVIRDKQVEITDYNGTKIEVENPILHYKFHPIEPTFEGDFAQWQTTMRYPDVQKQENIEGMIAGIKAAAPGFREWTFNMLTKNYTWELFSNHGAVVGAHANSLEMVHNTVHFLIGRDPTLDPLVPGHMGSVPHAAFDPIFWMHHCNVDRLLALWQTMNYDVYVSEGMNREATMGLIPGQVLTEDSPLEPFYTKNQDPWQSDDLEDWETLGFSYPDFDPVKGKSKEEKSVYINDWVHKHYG

Compound | inhibition at 50 µM (Tyrosinase; sample 50 uM) | inhibition at 100 µM (Tyrosinase; sample 100 uM) | inhibition at 50 µM (B16F1 melanoma cells) | Degree of irritation (skin) | Skin irritation (skin) | Tyrosinase activity inhibition rate (%) (Tyrosinase; sample 50 uM) | Tyrosinase activity inhibition rate (%) (Tyrosinase; sample 100 uM) | Melanin production inhibition rate (%) (B16F1 melanoma cells)
OC[C@H]1O[C@@H](Oc2ccc(O)cc2)[C@H](O)[C@@H](O)[C@@H]1O [Arbutin] | 9.2% | 14.4% | 18% | – | – | – | – | –
CC(C)C[C@H](NC(=O)/C=C/c1ccc(O)c(O)c1)C(=O)NCC(N)=O [Caffeic acid-LG-NH2, Caffeic acid-Leu-Gly-NH2] | – | – | – | None | no irritation | 24.2% | 26.8% | 41%
O=C(O)/C=C/c1ccc(O)c(O)c1 [Caffeic acid] | – | 21.3% | 16% | – | – | – | – | –
CC(C)C[C@H](NC(=O)/C=C/c1ccc(O)cc1)C(=O)NCC(N)=O [Coumaric acid-LG-NH2, Coumaric acid-Leu-Gly-NH2] | – | – | – | None | no irritation | 25.1% | 34.8% | 45.3%
O=C(O)/C=C/c1ccc(O)cc1 [Coumaric acid] | 21.3% | 24.6% | 23% | – | – | – | – | –
